Experimental data reported in ChEMBL document CHEMBL1127528, “Synthesis and carbonic anhydrase inhibitory activity of 4-substituted 2-thiophenesulfonamides” (J Med Chem, 1994).

How the values were obtained:
[1] = Ocular sensitization assay as susceptibility to nucleophilic attack by cysteine; type: functional
Carbonic anhydrase 2 = Carbonic anhydrase 2 (Homo sapiens, UniProt P00918)
Description: Activity against human carbonic anhydrase II

SMILES	Cysteine reaction [1]	IC50 (Carbonic anhydrase 2)
CC(=O)Nc1nnc(S(N)(=O)=O)s1	3.5e-05 min⁻¹	–
CCCCC(O[Si](C)(C)C(C)(C)C)c1csc(S(N)(=O)=O)c1 (stereo unspecified)	–	0.2 µM
CCCCCCC(N)c1csc(S(N)(=O)=O)c1 (stereo unspecified)	–	0.16 µM
CC(C)CN[C@H]1CCS(=O)(=O)c2sc(S(N)(=O)=O)cc21	< 5e-05 min⁻¹	–
CCCCNC(C)c1csc(S(N)(=O)=O)c1 (stereo unspecified)	–	0.59 µM
CC(=O)c1csc(S(N)(=O)=O)c1	–	0.016 µM
CCCCC(=O)c1csc(S(N)(=O)=O)c1	–	0.0063 µM
CCCCCC/C(=N\N)c1csc(S(N)(=O)=O)c1	5e-05 min⁻¹	0.002 µM
CCCCCCC(O)c1csc(S(N)(=O)=O)c1 (stereo unspecified)	< 5e-05 min⁻¹	0.013 µM
CCCCCC/C(=N\O)c1csc(S(N)(=O)=O)c1	5e-05 min⁻¹	0.0058 µM
CCCCCC/C(=N\OC)c1csc(S(N)(=O)=O)c1	5e-05 min⁻¹	0.0047 µM
NS(=O)(=O)c1cc(C(=O)c2ccccc2)cs1	5e-05 min⁻¹	0.0068 µM
CCCCC(N)c1csc(S(N)(=O)=O)c1 (stereo unspecified)	–	0.626 µM
CCCC/C(=N\O)c1csc(S(N)(=O)=O)c1	–	0.015 µM
CCCCCCC(=O)c1csc(S(N)(=O)=O)c1	5e-05 min⁻¹	0.005 µM
